{"source": "PubChem BioAssay (NCI)", "assay_in_all_cases": "NCI-60 cell line screen, 48 h", "key": {"HCT-116 colon": {"test_system": "HCT-116 colon"}, "M14 melanoma": {"test_system": "M14 melanoma"}, "786-0 renal": {"test_system": "786-0 renal"}, "BT-549 breast": {"test_system": "BT-549 breast"}, "SR leukemia": {"test_system": "SR leukemia"}, "NCI-H522 lung": {"test_system": "NCI-H522 lung"}, "SF-539 CNS": {"test_system": "SF-539 CNS"}, "SK-MEL-5 melanoma": {"test_system": "SK-MEL-5 melanoma"}, "SK-OV-3 ovarian": {"test_system": "SK-OV-3 ovarian"}, "SF-295 CNS": {"test_system": "SF-295 CNS"}, "OVCAR-8 ovarian": {"test_system": "OVCAR-8 ovarian"}, "A498 renal": {"test_system": "A498 renal"}, "RXF 393 renal": {"test_system": "RXF 393 renal"}, "IGROV1 ovarian": {"test_system": "IGROV1 ovarian"}, "UO-31 renal": {"test_system": "UO-31 renal"}, "ACHN renal": {"test_system": "ACHN renal"}, "MALME-3M melanoma": {"test_system": "MALME-3M melanoma"}, "CAKI-1 renal": {"test_system": "CAKI-1 renal"}, "HOP-92 NSCLC": {"test_system": "HOP-92 NSCLC"}, "NCI/ADR-RES ovarian": {"test_system": "NCI/ADR-RES ovarian"}, "KM12 colon": {"test_system": "KM12 colon"}, "MDA-MB-435": {"test_system": "MDA-MB-435"}, "NCI-H23 lung": {"test_system": "NCI-H23 lung"}, "OVCAR-4 ovarian": {"test_system": "OVCAR-4 ovarian"}, "LOX IMVI melanoma": {"test_system": "LOX IMVI melanoma"}, "SNB-19 CNS": {"test_system": "SNB-19 CNS"}, "SW-620 colon": {"test_system": "SW-620 colon"}, "SNB-75 CNS": {"test_system": "SNB-75 CNS"}, "OVCAR-3 ovarian": {"test_system": "OVCAR-3 ovarian"}}, "note": "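Cultured in 96-well plates, cells were exposed to test compound for 48 hours across five concentrations. The concentration for 50% growth inhibition is given as GI50. TGI is the concentration that stops growth completely.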", "data": [{"smiles": "C[C@]12C3CC[C@@]4(CO)C[C@]3(CCC1[C@](C)(C(=O)O)CC[C@@H]2O)CC4=O", "note": "(stereo partly drawn)", "values": [{"measurement": "GI50", "setting": "HCT-116 colon", "result": "> 100", "unit": "µM"}, {"measurement": "TGI", "setting": "HCT-116 colon", "result": "> 100", "unit": "µM"}, {"measurement": "GI50", "setting": "M14 melanoma", "result": "> 100", "unit": "µM"}, {"measurement": "TGI", "setting": "M14 melanoma", "result": "> 100", "unit": "µM"}, {"measurement": "GI50", "setting": "786-0 renal", "result": "> 100", "unit": "µM"}, {"measurement": "TGI", "setting": "786-0 renal", "result": "> 100", "unit": "µM"}, {"measurement": "GI50", "setting": "BT-549 breast", "result": "> 100", "unit": "µM"}, {"measurement": "TGI", "setting": "BT-549 breast", "result": "> 100", "unit": "µM"}, {"measurement": "GI50", "setting": "SR leukemia", "result": "> 100", "unit": "µM"}, {"measurement": "TGI", "setting": "SR leukemia", "result": "> 100", "unit": "µM"}, {"measurement": "GI50", "setting": "NCI-H522 lung", "result": "> 100", "unit": "µM"}, {"measurement": "TGI", "setting": "NCI-H522 lung", "result": "> 100", "unit": "µM"}, {"measurement": "GI50", "setting": "SF-539 CNS", "result": "> 100", "unit": "µM"}, {"measurement": "TGI", "setting": "SF-539 CNS", "result": "> 100", "unit": "µM"}, {"measurement": "GI50", "setting": "SK-MEL-5 melanoma", "result": "> 100", "unit": "µM"}, {"measurement": "TGI", "setting": "SK-MEL-5 melanoma", "result": "> 100", "unit": "µM"}, {"measurement": "GI50", "setting": "SK-OV-3 ovarian", "result": "> 100", "unit": "µM"}, {"measurement": "TGI", "setting": "SK-OV-3 ovarian", "result": "> 100", "unit": "µM"}, {"measurement": "GI50", "setting": "SF-295 CNS", "result": "> 100", "unit": "µM"}, {"measurement": "TGI", "setting": "SF-295 CNS", "result": "> 100", "unit": "µM"}, {"measurement": "GI50", "setting": "OVCAR-8 ovarian", "result": "> 100", "unit": "µM"}, {"measurement": "TGI", "setting": "OVCAR-8 ovarian", "result": "> 100", "unit": "µM"}, {"measurement": "GI50", "setting": "A498 renal", "result": "> 100", "unit": "µM"}, {"measurement": "TGI", "setting": "A498 renal", "result": "> 100", "unit": "µM"}, {"measurement": "GI50", "setting": "RXF 393 renal", "result": "> 100", "unit": "µM"}, {"measurement": "TGI", "setting": "RXF 393 renal", "result": "> 100", "unit": "µM"}, {"measurement": "GI50", "setting": "IGROV1 ovarian", "result": "> 100", "unit": "µM"}, {"measurement": "TGI", "setting": "IGROV1 ovarian", "result": "> 100", "unit": "µM"}, {"measurement": "GI50", "setting": "UO-31 renal", "result": "> 100", "unit": "µM"}, {"measurement": "TGI", "setting": "UO-31 renal", "result": "> 100", "unit": "µM"}, {"measurement": "GI50", "setting": "ACHN renal", "result": "> 100", "unit": "µM"}, {"measurement": "TGI", "setting": "ACHN renal", "result": "> 100", "unit": "µM"}, {"measurement": "GI50", "setting": "MALME-3M melanoma", "result": "> 100", "unit": "µM"}, {"measurement": "TGI", "setting": "MALME-3M melanoma", "result": "> 100", "unit": "µM"}, {"measurement": "GI50", "setting": "CAKI-1 renal", "result": "> 100", "unit": "µM"}, {"measurement": "TGI", "setting": "CAKI-1 renal", "result": "> 100", "unit": "µM"}, {"measurement": "GI50", "setting": "HOP-92 NSCLC", "result": "> 100", "unit": "µM"}, {"measurement": "TGI", "setting": "HOP-92 NSCLC", "result": "> 100", "unit": "µM"}, {"measurement": "GI50", "setting": "NCI/ADR-RES ovarian", "result": "> 100", "unit": "µM"}, {"measurement": "TGI", "setting": "NCI/ADR-RES ovarian", "result": "> 100", "unit": "µM"}, {"measurement": "GI50", "setting": "KM12 colon", "result": "> 100", "unit": "µM"}, {"measurement": "TGI", "setting": "KM12 colon", "result": "> 100", "unit": "µM"}, {"measurement": "GI50", "setting": "MDA-MB-435", "result": "> 100", "unit": "µM"}, {"measurement": "TGI", "setting": "MDA-MB-435", "result": "> 100", "unit": "µM"}, {"measurement": "GI50", "setting": "NCI-H23 lung", "result": "> 100", "unit": "µM"}, {"measurement": "TGI", "setting": "NCI-H23 lung", "result": "> 100", "unit": "µM"}, {"measurement": "GI50", "setting": "OVCAR-4 ovarian", "result": "> 100", "unit": "µM"}, {"measurement": "TGI", "setting": "OVCAR-4 ovarian", "result": "> 100", "unit": "µM"}, {"measurement": "GI50", "setting": "LOX IMVI melanoma", "result": "> 100", "unit": "µM"}, {"measurement": "TGI", "setting": "LOX IMVI melanoma", "result": "> 100", "unit": "µM"}, {"measurement": "GI50", "setting": "SNB-19 CNS", "result": "> 100", "unit": "µM"}, {"measurement": "TGI", "setting": "SNB-19 CNS", "result": "> 100", "unit": "µM"}, {"measurement": "GI50", "setting": "SW-620 colon", "result": "> 100", "unit": "µM"}, {"measurement": "TGI", "setting": "SW-620 colon", "result": "> 100", "unit": "µM"}, {"measurement": "GI50", "setting": "SNB-75 CNS", "result": "> 100", "unit": "µM"}, {"measurement": "TGI", "setting": "SNB-75 CNS", "result": "> 100", "unit": "µM"}, {"measurement": "GI50", "setting": "OVCAR-3 ovarian", "result": "> 100", "unit": "µM"}, {"measurement": "TGI", "setting": "OVCAR-3 ovarian", "result": "> 100", "unit": "µM"}]}]}
